Reference: PMC6753678, “Fueling Open Innovation for Malaria Transmission-Blocking Drugs: Hundreds of Molecules Targeting Early Parasite Mosquito Stages” (Frontiers in Microbiology, 2019)
Where two headings read alike, the source gives them in different places.

Assays:
[1] = tested on: 3D7-strain P. falciparum asexual parasites; assay: P. falciparum asexual growth inhibition assay (Pf GIA); type: cell-based, Plasmodium falciparum; settings: dose response confirmation; read-out: Pf asexual growth inhibition assays IC50
Method: The asexual activity of active compounds was tested in dose response with parasite lactate dehydrogenase (LDH) activity used as a readout of parasite viability as described in [Gamo et al. (2010)]. Briefly, 3D7-strain P. falciparum asexual parasites were diluted to 0.25% parasitemia, 2% hematocrit in culture medium composed of RPMI medium with 25 mM HEPES, 2% D-sucrose, 0.3% L-glutamine, 150 μM hypoxanthine plus 5% albumax. 25 μl of parasite inoculum was then dispensed into each well of a 384 well plate containing test compounds and positive (50 μM chloroquine) and negative (DMSO) controls. Plates were incubated for 72 h at 37°C in a 5% CO2, 5%O2, 90% N2 environment before being frozen at −70°C. Plates were then thawed and 70 μl of reaction mix (143 mM sodium L-lactate, 143 mM 3-acetyl pyridine adenine dinucleotide, […] Nitro Blue tetrazolium chloride, […] diaphorase (2.83 U/ml), 0.7% Tween 20, 100 mM Tris–HCl pH 8.0) was added to each well using a Multidrop Combi automated dispenser. Plates were shaken to mix and then absorbance at 650 nm was measured after 10 min incubation at room temperature. Percent inhibition of asexual growth was then calculated with respect to positive and negative controls. Data presented is the mean of three independent biological replicates.

[2] = tested on: P. berghei ookinete development; settings: for % inhibition, Replicate A / % inhibition, Replicate B: primary screen at 1 μM
[3] = tested on: HepG2 cells; assay: HepG2 cytotoxicity assay
Method: Briefly, HepG2 cells were seeded onto compound-treated 384 well plates at a density of 2,500 cells per well in Minimal Essential Medium (MEM) plus 10% fetal bovine serum and 1% non-essential amino acids solution (NEAA). Cells were incubated with test compounds or 50 μM doxorubicin (positive) and DSMO (negative) controls at 37°C for 48 h in a humidified 5% CO2 atmosphere. […] Cell viability was then measured in a fluorescent plate reader and percent inhibition calculated with respect to positive and negative controls.

[4] = read-out: Pb Ookinete development assay IC50, dose response confirmation

| Compound | % inhibition, Replicate A [2] | % inhibition, Replicate B [2] | also measured |
| --- | --- | --- | --- |
| Cc1nc(C)c(-c2ccc(Oc3ccc(Cl)cc3Cl)cc2)c(O)c1Br [TCMDC-137533] | 69.44% | 92.36% | IC50 [1]: 0.165 µM; IC50 [2, 4]: 0.203 µM |
| Cc1cc(-c2ccc(NC(=O)Nc3ccc4nccc(N5CCN(C)CC5)c4c3)cc2C)cc(C)n1.Cl [TCMDC-139355] | 53.36% | 17.60% |  |
| CC(C)(C)c1ccc(Cc2cccc3nc(N)nc(N)c23)cc1 [TCMDC-137821] | 61.67% | 24.79% |  |
| Cn1ncc2ccc(Nc3nccc(-c4ccc5c(c4)c(N)nn5C)n3)cc21 [TCMDC-137049] | 55.92% | 51.61% |  |
| CN1CCC(C(=O)Nc2ccc(-c3cccc(-c4nc5cc(F)ccc5[nH]4)c3)cc2)CC1 [TCMDC-132180] | 7.14% | 53.61% |  |
| CCc1cc2c3c(N)nc(N)nc3ccc2n1C(CC)CC [TCMDC-137309] | 48.79% | 56.84% |  |
| CC=Cc1cc(Cc2c[nH]c(=N)[nH]c2=N)cc(CCC)c1OC [TCMDC-137634] | 54.07% | 40.96% |  |
| CC(C)COc1ccc(Cl)cc1Cc1ccc(-c2nc3cnc4ccccc4c3[nH]2)o1 [TCMDC-136650] | 61.46% | 37.55% |  |
| COc1cc(OC)cc(C(=O)Nc2ccc(Nc3nc(C)cc(N(C)C)n3)cc2)c1 [TCMDC-124726] | 52.96% | 25.99% |  |
| COc1ccc2nccc([C@@H](O)CN3CCC(NCc4cc5cccc6c5n(c4=O)CCC6)CC3)c2c1.O=C(O)C(=O)O [TCMDC-140735] | 13.85% | 52.08% | Is compound selective in assay? Pb ODA active? ([2]; 1: YES, 0: NO): 0 (0: NO); IC50 ([2]; read-out: Pb ODA IC50, this manuscript): 3.43 µM; IC50 [2, 4]: 3.43 µM; IC50 ([3]; read-out: HepG2 cytotoxicity assay IC50, dose response confirmation): 16.2 µM; Unified cytotox ([3]; unified HepG2 value across the three screens): 16.22 µM |
| FC(F)(F)c1ccc(Nc2nnnc3ccccc23)cc1 [TCMDC-125603] | 80.24% | 96.04% | IC50 [1]: 0.009 µM; IC50 [2, 4]: 1.26 µM |
| CC(C)Oc1ccc2c(c1)OC(c1ccccc1)(C(F)(F)F)NC2=O (stereo not shown) [TCMDC-123633] | 24.49% | 54.58% |  |
| CC1Cc2ccccc2N1S(=O)(=O)c1cc(OCC(F)(F)F)ccc1OCC(F)(F)F (stereo not shown) [TCMDC-124044] | 52.34% | 21.81% |  |
| COc1cc(C(=O)N2CCOC(CCN3CCC(c4ccc(Cl)cc4)CC3)(c3ccc(Cl)c(Cl)c3)C2)cc(OC)c1OC (stereo not shown) [TCMDC-135566] | 63.32% | 35.61% |  |
| Br.CCc1ccccc1OCCCON1C(=N)N=C(N)NC1(C)C [TCMDC-131305] | 58.24% | 46.89% |  |
| Cc1cccc2nc(-c3ccc(-c4cccc(CN5CCCC(N)C5)c4)s3)[nH]c12.O=C(O)C(F)(F)F (stereo not shown) [TCMDC-133874] | 50.71% | 12.43% |  |
| NS(=O)(=O)c1cncc(-c2ccc3nccc(-c4cn[nH]c4)c3n2)c1 [TCMDC-134293] | 59.71% | 54.48% | IC50 [1]: 0.283 µM; IC50 [2, 4]: 2.16 µM |
| N#Cc1cc([N+](=O)[O-])ccc1-n1nc(-c2cccc(Cl)c2)n(Cc2ccco2)c1=S [TCMDC-134717] | 64.43% | 77.59% |  |
| Cc1nc2nc(N)nc(N)c2c(C)c1Cc1ccccc1I.Cl [TCMDC-137243] | 8.94% | 52.96% |  |
| Nc1ncnc2cc(-c3cccc(S(N)(=O)=O)c3)sc12 [TCMDC-135294] | 103.63% | 97.06% |  |
| CN(Cc1ccccc1)C1CCN(c2cc(NC(=O)c3cccc(F)c3)ccn2)CC1.O=C(O)C(F)(F)F [TCMDC-135000] | 52.34% | 57.11% |  |
| Cc1nc(SCC(=O)N2CCCC2=O)c2c(C)c(C)sc2n1 [TCMDC-123558] | 50.04% | 22.22% |  |
| CCc1ccc(NC(=O)c2ccc(CN3CCCN(CC4CCCCC4)CC3)cc2)cc1.O=C(O)C(F)(F)F [TCMDC-136437] | 48.61% | 52.92% |  |

| Compound | % inhibition, Replicate A [2] | % inhibition, Replicate B [2] | also measured |
| --- | --- | --- | --- |
| CCCc1cc2c3c(N)nc(N)nc3ccc2n1CC [TCMDC-137946] | 61.03% | 76.85% |  |
| Cc1[nH]c(C)c(-c2ccc(Oc3cccc(Cl)c3)cc2)c(=O)c1Cl [TCMDC-137395] | 115.83% | 119.38% |  |
| CC(C)c1cccc(C(C)C)c1NC(=O)NNC(=O)c1ccc(CCN2CCC(c3nc(COCC(F)(F)F)c(-c4ccc(F)cc4)o3)CC2)cc1 [TCMDC-131908] | 61.66% | 23.60% |  |
| Cc1cc(C(=O)NC2CCN(CC3(c4ccc(Cl)cc4)CCC3)CC2)on1 [TCMDC-124833] | 70.28% | 68.63% |  |
| O=[N+]([O-])c1ccccc1C=NN=c1c2c([nH]c3ccccc13)CCCC2 [TCMDC-142202] | 51.15% | 30.70% |  |
| CCOC(=O)c1cc2c(CCN3C(=O)c4ccccc4C3=O)cn(C)c2cc1-c1ccncc1 [TCMDC-138099] | 54.94% | 51.34% |  |
| O=C(Nc1ccc(Cl)cc1)N(CC1CC2CCC(C1)N2Cc1ccc(C(F)(F)F)cc1)c1ccc(N2CCOCC2)c(F)c1 (stereo not shown) [TCMDC-135859] | 55.58% | 25.24% |  |
| c1ccc(-c2csc(Nc3nc4cc5c(cc4s3)OCO5)n2)nc1 [TCMDC-124550] | 83.78% | 59.07% |  |
| CCCC(=O)Nc1ccc(Cl)c(NC(=O)COc2cc(C)ccc2C(C)C)c1 [TCMDC-123706] | 60.12% | 20.94% |  |
| CCN1CCN(CCCNc2c3ccc(Cl)cc3nc3ccc(OC)cc23)CC1.Cl [TCMDC-137586] | 79.33% | 90.04% |  |
| O=C(NCCCN1CCN(c2cccc(Cl)c2)CC1)c1ccc(-c2nc3cc(Cl)c(Cl)cc3[nH]2)cc1 [TCMDC-140077] | 61.66% | 14.32% |  |
| CCCCCc1cnc2nc(N)nc(N)c2c1C.Cl [TCMDC-137717] | 60.03% | 27.06% |  |
| CC(CO)(CO)NCc1cc2ccc3ccsc3c2c2ccccc12.CS(=O)(=O)O [TCMDC-137753] | 48.80% | 68.87% |  |
| Cc1ccc(CN2CCC(C(=O)Nc3ccc(-c4cc5ccccc5[nH]4)cc3)CC2)o1 [TCMDC-124634] | 35.55% | 65.49% |  |
| Cl.O=C(CC1CCCC1)N(CC1CCN(Cc2ccc(C(F)(F)F)cc2)CC1)c1ccc(N2CCOCC2)c(F)c1 [TCMDC-135855] | 65.53% | 32.88% |  |
| COc1ccc2nccc(N3CCC(NCCNCc4ccc5c(n4)NC(=O)CS5)C3)c2n1.Cl (stereo not shown) [TCMDC-134649] | 18.73% | 51.52% |  |
| COc1cc(NCCCNC(=O)c2cc3c(Cl)cc(Cl)cc3[nH]2)nc2ccccc12 [TCMDC-140360] | 57.79% | 39.97% |  |
| O=c1cc(NCCCN(Cc2cc3c(Cl)cc(Cl)cc3[nH]2)Cc2cc3c(Cl)cc(Cl)cc3[nH]2)[nH]c2ccccc12 [TCMDC-139849] | 64.98% | 20.87% |  |
| COc1ccc2c(=O)c(-c3ccc(OC(F)(F)F)cc3)c(C)[nH]c2c1 [TCMDC-138811] | 34.78% | 69.73% |  |
| Cc1[nH]c(C)c(-c2ccc(S(=O)(=O)c3ccc(Cl)cc3)cc2)c(=O)c1Cl [TCMDC-137412] | 78.54% | 115.81% |  |
| CC(C)(CN)c1nc(-c2ccc(Cl)c(O)c2)c(-c2ccnc(N)n2)[nH]1 [TCMDC-141019] | 10.20% | 56.84% | IC50 [1]: 0.863 µM; IC50 [2, 4]: 1.72 µM |
| CNCCN(C)C(=O)Oc1c(Cl)c(C)nc(C)c1-c1ccc(Oc2ccc(OC(F)(F)F)cc2)cc1.Cl [TCMDC-137384] | 31.42% | 56.87% |  |
